Tests used:
[1] = test system: MCF7; experiment: Antiproliferative activity against human MCF7 cells assessed as reduction in cell growth incubated for 24 hrs by MTT assay; conditions: MCF7, 24 h
[2] = Aqueous solubility of the compound; assay type: physicochemical; conditions: water (aqueous)
[3] = test system: SiHa; experiment: Growth inhibition of human SiHa cells measured after 48 hrs by SRB assay; assay type: functional
[4] = test system: MDA-MB-231; experiment: Antiproliferative activity against human MDA-MB-231 cells assessed as reduction in cell growth incubated for 24 hrs by MTT assay; conditions: MDA-MB-231, 24 h
[5] = target: Estrogen receptor beta (Homo sapiens, UniProt Q92731); experiment: Inhibition of ERbeta (unknown origin) by renilla luciferase assay
[6] = test system: MDA-MB-231; experiment: Growth inhibition of human MDA-MB-231 cells measured after 48 hrs by SRB assay; assay type: functional
[7] = test system: MCF7; experiment: Antiproliferative activity against human MCF7 cells assessed as cell growth inhibition incubated for 72 hrs by MTT assay; conditions: MCF7, 72 h
[8] = test system: MCF7; experiment: Antiproliferative activity against human MCF7 cells assessed as reduction in cell viability measured after 72 hrs by MTT assay; assay type: functional, cell-based; conditions: MCF7, 72 h
[9] = test system: MCF7; experiment: Antiproliferative activity against human MCF7 cells assessed as reduction in cell growth measured after 72 hrs by alamar blue analysis; conditions: MCF7, 72 h

Sequence of Estrogen receptor beta (Q92731 whole entry): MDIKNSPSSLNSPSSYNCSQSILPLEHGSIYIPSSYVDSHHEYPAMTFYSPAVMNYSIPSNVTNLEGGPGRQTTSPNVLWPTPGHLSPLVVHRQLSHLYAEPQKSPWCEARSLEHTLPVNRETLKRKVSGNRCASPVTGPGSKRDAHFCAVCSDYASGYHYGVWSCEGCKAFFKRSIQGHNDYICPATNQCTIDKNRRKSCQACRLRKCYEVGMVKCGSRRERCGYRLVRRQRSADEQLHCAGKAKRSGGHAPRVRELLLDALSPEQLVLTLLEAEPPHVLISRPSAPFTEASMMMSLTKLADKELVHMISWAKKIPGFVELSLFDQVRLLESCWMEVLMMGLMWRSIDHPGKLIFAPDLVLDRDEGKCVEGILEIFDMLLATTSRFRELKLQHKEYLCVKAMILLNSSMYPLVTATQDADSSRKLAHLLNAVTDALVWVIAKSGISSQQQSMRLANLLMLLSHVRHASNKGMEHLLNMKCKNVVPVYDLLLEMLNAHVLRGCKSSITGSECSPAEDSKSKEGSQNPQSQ

`CC/C(=C(\c1ccc(O)cc1)c1ccc(OCCNC)cc1)c1ccccc1` [ENDOXIFEN] gave an IC50 [1] of 29 nM.

Molecule `CC/C(=C(/c1ccc(OCCN(C)C)cc1)c1ccc(OC(=O)N(C)CCN(C)C(=O)OCc2cc(OC)c(OCC(=O)NCCN)cc2[N+](=O)[O-])cc1)c1ccccc1` has a solubility [2] of no less than 20 µg/mL.

With `c1ccc(/C(Cn2cncn2)=C(/c2ccccc2)c2ccc(OCCN3CCN(c4ncccn4)CC3)cc2)cc1` the GI50 [3] was 120 nM.

For `CCC(=C(c1ccc(O)cc1)c1ccc(OCCN(C)C(=O)/C(=C/c2ccc(OC)c(O)c2)c2cc(OC)c(OC)c(OC)c2)cc1)c1ccc(O)cc1`, the IC50 [1] was 5 nM and the IC50 [4] was 2480 nM.

`CCC(=C(c1ccc(O)cc1)c1ccc(OCCNCCCCCCNC(=O)CCCCCNC(=O)CSc2c(Cl)c(Cl)c(C(=O)O)c(C3=c4cc5c(c(S(=O)(=O)O)c4Oc4c3cc3c(c4S(=O)(=O)O)NC(C)(C)CC3C)=NC(C)(C)CC5C)c2Cl)cc1)c1ccccc1` (centres undefined) showed an IC50 [5] of 240000 nM.

With `CC/C(=C(\c1ccccc1)c1ccc(OCCN(C)C)cc1)c1ccccc1` [TAMOXIFEN] the GI50 [6] was 240 nM and the IC50 [7] was 12600 nM.

In the case of `COc1cc(COc2ccc(/C(=C(\C)c3ccccc3)c3ccc(OCCN(C)C)cc3)cc2)c([N+](=O)[O-])cc1OCC(=O)NCCN`, the solubility [2] is reported as no less than 20 µg/mL.

Work on `CC/C(=C(\c1ccccc1)c1ccc(OCCN(C)CCCCC(=O)NCCc2c[nH]c3ccc(OC)cc23)cc1)c1ccccc1` yielded an IC50 [8] of 4000 nM.

With `CC/C(=C(\c1ccccc1)c1ccc(OCCN(C)CCCCCC(=O)NCCc2c[nH]c3ccc(OC)cc23)cc1)c1ccccc1` the IC50 [8] was 80000 nM.

`c1ccc(/C(Cn2cncn2)=C(/c2ccccc2)c2ccc(OCCN3CCN(c4ccc5c(c4)OCO5)CC3)cc2)cc1` gave a GI50 [6] of 230 nM.

Work on `CC/C(=C(\c1ccc(O)cc1)c1ccc(OCCN(C)C(=O)CCC(=O)Oc2cc(/C=C\c3cc(OC)c(OC)c(OC)c3)ccc2OC)cc1)c1ccccc1` yielded an IC50 [9] of 5.7 nM.

`COc1ccc(/C=C\c2cc(OC)c(OC)c(OC)c2)cc1O` [COMBRETASTATIN A4] gave an IC50 [1] of 8 nM.

Reference: ChEMBL document CHEMBL5532762, “Potential of covalently linked tamoxifen hybrids for cancer treatment: recent update” (RSC Med Chem, 2024)
